Measured values: ChEMBL document CHEMBL1201861, “Genomics of Drug Sensitity in Cancer screening data, Wellcome Trust Sanger Institute”
pIC50: −log10 of the molar value.

Tests used:
Experiment in all cases: cells
HLE = type: functional, cell-based, Homo sapiens; settings: Homo sapiens, HLE;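 note: growth inhibition of human HLE cells, read out by a cell viability assay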
Description: SANGER: Inhibition of human HLE cell growth in a cell viability assay.

GCT = type: functional, cell-based, Homo sapiens; settings: Homo sapiens, GCT;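 note: GCT cell line proliferation inhibition, read out with a cell viability assay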
Description: SANGER: Inhibition of human GCT cell growth in a cell viability assay.

CAL-12T = type: functional, cell-based, Homo sapiens; settings: Homo sapiens, CAL-12T;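 note: growth inhibition of human CAL-12T cells, read out with a cell viability assay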
Description: SANGER: Inhibition of human CAL-12T cell growth in a cell viability assay.

OVCAR-4 = type: functional, cell-based, Homo sapiens; settings: Homo sapiens, OVCAR-4;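 note: growth inhibition of human OVCAR-4 cells, measured with a cell viability assay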
Description: SANGER: Inhibition of human OVCAR-4 cell growth in a cell viability assay.

COLO-320-HSR = type: functional, cell-based; settings: Homo sapiens;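 note: growth inhibition of COLO-320-HSR cells, determined with a cell viability assay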
Description: SANGER: Inhibition of human COLO-320-HSR cell growth in a cell viability assay.

SK-MEL-28 = type: functional, cell-based; settings: Homo sapiens;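 note: growth inhibition of human SK-MEL-28 cells, read out with a cell viability assay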
Description: SANGER: Inhibition of human SK-MEL-28 cell growth in a cell viability assay.

C-33-A = type: functional, cell-based, Homo sapiens; settings: Homo sapiens, C-33-A;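 note: cell viability assay measuring growth inhibition of C-33-A cells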
Description: SANGER: Inhibition of human C-33-A cell growth in a cell viability assay.

MEG-01 = type: functional, cell-based; settings: Homo sapiens;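 note: growth inhibition of MEG-01 cells, read out by a cell viability assay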
Description: SANGER: Inhibition of human MEG-01 cell growth in a cell viability assay.

EW-24 = type: functional, cell-based; settings: Homo sapiens;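 note: human EW-24 cancer cell line, growth inhibition read out via a cell viability assay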
Description: SANGER: Inhibition of human EW-24 cell growth in a cell viability assay.

D-392MG = type: functional, cell-based, Homo sapiens; settings: Homo sapiens, D-392MG
HT = type: functional, cell-based; settings: Homo sapiens
Description: SANGER: Inhibition of human HT cell growth in a cell viability assay.

COR-L105 = type: functional, cell-based, Homo sapiens; settings: Homo sapiens, COR-L105;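 note: cell growth inhibition determined with a viability assay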
Description: SANGER: Inhibition of human COR-L105 cell growth in a cell viability assay.

SW756 = type: functional, cell-based, Homo sapiens; settings: Homo sapiens, SW756;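 note: growth inhibition of human SW756 cells, read out with a cell viability assay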
Description: SANGER: Inhibition of human SW756 cell growth in a cell viability assay.

SHP77 = type: functional, cell-based, Homo sapiens, SHP-77; settings: Homo sapiens, SHP77;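 note: growth inhibition of human SHP-77 cells measured by a cell viability assay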
Description: SANGER: Inhibition of human SHP-77 cell growth in a cell viability assay.

SW 962 = type: functional, cell-based, Homo sapiens; settings: Homo sapiens, SW 962;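 note: growth inhibition of human SW962 cells, read out by a cell viability assay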
Description: SANGER: Inhibition of human SW962 cell growth in a cell viability assay.

KYSE-150 cell line = type: functional, cell-based, Homo sapiens; settings: Homo sapiens, KYSE-150;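 note: growth inhibition of human KYSE-150 cells, read out with a cell viability assay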
Description: SANGER: Inhibition of human KYSE-150 cell growth in a cell viability assay.

SH-4 = type: functional, cell-based, Homo sapiens; settings: Homo sapiens, SH-4;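 note: growth inhibition of SH-4 cells, read out with a cell viability assay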
Description: SANGER: Inhibition of human SH-4 cell growth in a cell viability assay.

SW13 = type: functional, cell-based, Homo sapiens; settings: Homo sapiens, SW13;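 note: IC50 is inhibition of SW13 cell growth, read out with a cell viability assay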
Description: SANGER: Inhibition of human SW13 cell growth in a cell viability assay.

KLE = type: functional, cell-based, Homo sapiens; settings: Homo sapiens, KLE;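 note: growth inhibition of human KLE cells, read out with a cell viability assay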
Description: SANGER: Inhibition of human KLE cell growth in a cell viability assay.

ABC-1 = type: functional, cell-based, Homo sapiens; settings: Homo sapiens, ABC-1;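 note: growth inhibition of human ABC-1 cells, read out by a cell viability assay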
Description: SANGER: Inhibition of human ABC-1 cell growth in a cell viability assay.

SW626 = type: functional, cell-based, Homo sapiens; settings: Homo sapiens, SW626;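 note: growth inhibition of SW626 cells, measured with a cell viability assay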
Description: SANGER: Inhibition of human SW626 cell growth in a cell viability assay.

SW-620 = type: functional, cell-based, Homo sapiens; settings: Homo sapiens, SW-620;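 note: growth inhibition of human SW-620 cells, measured by a cell viability assay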
Description: SANGER: Inhibition of human SW620 cell growth in a cell viability assay.

TE-12 = type: functional, cell-based; settings: Homo sapiens;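 note: growth inhibition of TE-12 cells, read out by a cell viability assay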
Description: SANGER: Inhibition of human TE-12 cell growth in a cell viability assay.

J-RT3-T3-5 = type: functional, cell-based; settings: Homo sapiens;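 note: cell viability assay measuring growth inhibition of human J-RT3-T3-5 cells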
Description: SANGER: Inhibition of human J-RT3-T3-5 cell growth in a cell viability assay.

ES7 = type: functional, cell-based, Homo sapiens; settings: Homo sapiens, ES7;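 note: growth inhibition of cultured human ES7 cells, read out as cell viability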
Description: SANGER: Inhibition of human ES7 cell growth in a cell viability assay.

NCI-H2228 = type: functional, cell-based, Homo sapiens; settings: Homo sapiens, NCI-H2228;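 note: growth inhibition of human NCI-H2228 cells, read out by a cell viability assay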
Description: SANGER: Inhibition of human NCI-H2228 cell growth in a cell viability assay.

GR-ST = type: functional, cell-based; settings: Homo sapiens
Description: SANGER: Inhibition of human GR-ST cell growth in a cell viability assay.

A-431 = type: functional, cell-based, Homo sapiens; settings: Homo sapiens, A-431;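 note: growth inhibition of A-431 cells, determined with a cell viability read-out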
Description: SANGER: Inhibition of human A431 cell growth in a cell viability assay.

EKVX = type: functional, cell-based, Homo sapiens; settings: Homo sapiens, EKVX;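 note: growth inhibition of human EKVX cells, read out with a cell viability assay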
Description: SANGER: Inhibition of human EKVX cell growth in a cell viability assay.

DU-4475 = type: functional, cell-based; settings: Homo sapiens
Description: SANGER: Inhibition of human DU-4475 cell growth in a cell viability assay.

HPAF-II = type: functional, cell-based, Homo sapiens; settings: Homo sapiens, HPAF-II;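 note: growth inhibition of HPAF-II cells, read out with a cell viability assay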
Description: SANGER: Inhibition of human HPAF-II cell growth in a cell viability assay.

MKN-28 = type: functional, cell-based, Homo sapiens; settings: Homo sapiens, MKN-28;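 note: cell viability assay read-out, IC50 reflects suppression of growth of human MKN-28 cells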
Description: SANGER: Inhibition of human MKN28 cell growth in a cell viability assay.

RS4-11 = type: functional, cell-based; settings: Homo sapiens;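 note: growth inhibition of RS4-11 cells, read out by a cell viability assay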
Description: SANGER: Inhibition of human RS4-11 cell growth in a cell viability assay.

KARPAS-45 = type: functional, cell-based; settings: Homo sapiens;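 note: inhibition of cell line growth, read out through a viability assay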
Description: SANGER: Inhibition of human KARPAS-45 cell growth in a cell viability assay.

NCI-H1792 = type: functional, cell-based, Homo sapiens; settings: Homo sapiens, NCI-H1792;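 note: growth inhibition of human NCI-H1792 cells, read out as cell viability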
Description: SANGER: Inhibition of human NCI-H1792 cell growth in a cell viability assay.

AGS = type: functional, cell-based, Homo sapiens; settings: Homo sapiens, AGS;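 note: growth inhibition of AGS cells, determined with a cell viability assay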
Description: SANGER: Inhibition of human AGS cell growth in a cell viability assay.

SCH = type: functional, cell-based, Homo sapiens; settings: Homo sapiens, SCH;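 note: growth inhibition of human SCH cells, read out in a cell viability assay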
Description: SANGER: Inhibition of human SCH cell growth in a cell viability assay.

RPMI-2650 = type: functional, cell-based, Homo sapiens; settings: Homo sapiens, RPMI-2650
Description: SANGER: Inhibition of human RPMI-2650 cell growth in a cell viability assay.

SJSA-1 = type: functional, cell-based, Homo sapiens; settings: Homo sapiens, SJSA-1;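 note: growth inhibition of human SJSA-1 cells, read out through a cell viability measurement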
Description: SANGER: Inhibition of human SJSA-1 cell growth in a cell viability assay.

KYSE-520 cell line = type: functional, cell-based, Homo sapiens; settings: Homo sapiens, KYSE-520;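 note: growth inhibition of human KYSE-520 cells, read out with a viability assay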
Description: SANGER: Inhibition of human KYSE-520 cell growth in a cell viability assay.

MZ2-MEL = type: functional, cell-based, Homo sapiens; settings: Homo sapiens, MZ2-MEL;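 note: growth inhibition of MZ2-MEL cells read out with a cell viability assay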
Description: SANGER: Inhibition of human MZ2-MEL cell growth in a cell viability assay.

SK-UT-1 = type: functional, cell-based, Homo sapiens; settings: Homo sapiens, SK-UT-1;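 note: growth inhibition of SK-UT-1 cells, measured by a cell viability assay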
Description: SANGER: Inhibition of human SK-UT-1 cell growth in a cell viability assay.

MZ1-PC = type: functional, cell-based, Homo sapiens; settings: Homo sapiens, MZ1-PC;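 note: cell viability assay measuring growth inhibition of human MZ1-PC cells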
Description: SANGER: Inhibition of human MZ1-PC cell growth in a cell viability assay.

Huh-7 = type: functional, cell-based, Homo sapiens; settings: Homo sapiens, Huh-7;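 note: HuH-7 cell growth inhibition, read out with a cell viability assay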
Description: SANGER: Inhibition of human HuH-7 cell growth in a cell viability assay.

SF-126 = type: functional, cell-based, Homo sapiens; settings: Homo sapiens, SF-126;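 note: growth inhibition of human SF126 cells, read out with a cell viability assay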
Description: SANGER: Inhibition of human SF126 cell growth in a cell viability assay.

LC-2-ad = type: functional, cell-based, Homo sapiens; settings: Homo sapiens, LC-2-ad;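 note: growth inhibition of human LC-2-ad cells, read out with a cell viability assay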
Description: SANGER: Inhibition of human LC-2-ad cell growth in a cell viability assay.

NCI-H1581 = type: functional, cell-based, Homo sapiens; settings: Homo sapiens, NCI-H1581;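 note: cell growth inhibition read out by a viability assay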
Description: SANGER: Inhibition of human NCI-H1581 cell growth in a cell viability assay.

RCM-1 = type: functional, cell-based, Homo sapiens; settings: Homo sapiens, RCM-1;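 note: growth inhibition of the RCM-1 line, determined with a cell viability readout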
Description: SANGER: Inhibition of human RCM-1 cell growth in a cell viability assay.

KNS-42 = type: functional, cell-based, Homo sapiens; settings: Homo sapiens, KNS-42;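 note: growth inhibition of KNS-42 cells, read out with a cell viability assay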
Description: SANGER: Inhibition of human KNS-42 cell growth in a cell viability assay.

LU-139 = type: functional, cell-based; settings: Homo sapiens
Description: SANGER: Inhibition of human LU-139 cell growth in a cell viability assay.

ATN-1 = type: functional, cell-based; settings: Homo sapiens;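 note: growth inhibition of human ATN-1 cells, read out with a cell viability assay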
Description: SANGER: Inhibition of human ATN-1 cell growth in a cell viability assay.

EW-13 = type: functional, cell-based; settings: Homo sapiens;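 note: growth inhibition of EW-13 cells, read out with a cell viability assay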
Description: SANGER: Inhibition of human EW-13 cell growth in a cell viability assay.

`CCC1=C[C@@H]2CN(C1)Cc1c([nH]c3ccccc13)[C@@](C(=O)OC)(c1cc3c(cc1OC)N(C)[C@H]1[C@@](O)(C(=O)OC)[C@H](OC(C)=O)[C@]4(CC)C=CCN5CC[C@]31[C@@H]54)C2` [VINORELBINE] gave a pIC50 (HLE) of 7.99, a pIC50 (GCT) of 7.29 and a pIC50 (CAL-12T) of 7.68. The pIC50 (OVCAR-4) was 8.76, the pIC50 (COLO-320-HSR) was < 7.19 and the pIC50 (SK-MEL-28) was < 7.19. For the same compound, the pIC50 (C-33-A) was 8.14, the pIC50 (MEG-01) was 7.68 and the pIC50 (EW-24) was < 7.19. For the same compound, the pIC50 (D-392MG) was < 7.19, the pIC50 (HT) was 7.67 and the pIC50 (COR-L105) was 7.51. The pIC50 (SW756) was < 7.19, the pIC50 (SHP77) was < 7.19 and the pIC50 (SW 962) was 7.56. For the same compound, the pIC50 (KYSE-150 cell line) was 8.52, the pIC50 (SH-4) was 7.81 and the pIC50 (SW13) was 8.33. For the same compound, the pIC50 (KLE) was < 7.19, the pIC50 (ABC-1) was 8.52 and the pIC50 (SW626) was 7.42. The pIC50 (SW-620) was 8.07, the pIC50 (TE-12) was < 7.19 and the pIC50 (J-RT3-T3-5) was 8.17. The pIC50 (ES7) was 8.41, the pIC50 (NCI-H2228) was 7.89 and the pIC50 (GR-ST) was 8.08. For the same compound, the pIC50 (A-431) was 8.54, the pIC50 (EKVX) was < 7.19 and the pIC50 (DU-4475) was 7.32. The pIC50 (HPAF-II) was 7.78, the pIC50 (MKN-28) was 8.32 and the pIC50 (RS4-11) was 8.10. The pIC50 (KARPAS-45) was 8.24, the pIC50 (NCI-H1792) was < 7.19 and the pIC50 (AGS) was 8.19. The pIC50 (SCH) was < 7.19, the pIC50 (RPMI-2650) was 8.00 and the pIC50 (SJSA-1) was 7.90. For the same compound, the pIC50 (KYSE-520 cell line) was 7.75, the pIC50 (MZ2-MEL) was 7.37 and the pIC50 (SK-UT-1) was 8.65. For the same compound, the pIC50 (MZ1-PC) was 7.75, the pIC50 (Huh-7) was 7.53 and the pIC50 (SF-126) was < 7.19. For the same compound, the pIC50 (LC-2-ad) was 8.30, the pIC50 (NCI-H1581) was 7.43 and the pIC50 (RCM-1) was < 7.19. It also gave a pIC50 (KNS-42) of 8.10, a pIC50 (LU-139) of 7.28 and a pIC50 (ATN-1) of 8.71. For the same compound, the pIC50 (EW-13) was 8.18.
